Source: paper PMC2009897, “Comparison of mutagenesis and malignant transformation by dihydrodiols from benz[a]anthracene and 7,12-dimethylbenz[a]anthracene” (British Journal of Cancer, 1979)
Several values for one entry are separate records, joined by “and”; a condition that tells them apart may be missing. Equal values may be shown once. Read-outs that look alike come from different tables or passages of the source. Each block holds one compound with its values, some of them ahead of it.

Tests used:
C3H/HeJ mice = conditions: 106 cells from 2 clones transformed by the compound, 3 mice/clone (6 mice), five weeks after injection
[1] = tested on: V79 Chinese hamster cells; assay: Cytotoxicity (plating efficiency) in V79 Chinese hamster cells; type: cell-based
mouse skin = conditions: cited from earlier work
[2] = tested on: Salmonella typhimurium TA100; conditions: cited from earlier work; for Microsome-mediated mutagenic activity in S. typhimurium TA100: ref Malaveille et al., 1978; for Mutagenic activity in Salmonella typhimurium TA100: presence of mono-oxygenase systems, ref Wood et al., 1976
M2 mouse fibroblasts [3] = tested on: M2 mouse fibroblasts
M2 mouse fibroblasts [4] = assay: Plating efficiency of M2 mouse fibroblasts; type: cell-based
[5] = tested on: V79 Chinese hamster cells; conditions: ref Wood et al. (1977a); cited from earlier work
V79 cells = tested on: V79 cells; parameters: method as in Slaga et al., 1978; conditions: presence of mono-oxygenase systems; ref Slaga et al., 1978; cited from earlier work
newborn mice = tested on: newborn mice; parameters: method as in Wislocki et al., 1976; conditions: ref Wislocki et al., 1976; cited from earlier work
M2 mouse fibroblasts [6] = conditions: cited from earlier work
[7] = tested on: V79 Chinese hamster cells

Structure (SMILES): Cc1c2ccccc2c(C)c2c3c(ccc12)[C@@H](O)[C@H](O)C=C3 (relative stereo) [trans-3,4-Dihydro-3,4-dihydroxy-DMBA, trans-3,4-dihydro-3,4-dihydroxy-DMBA]
Animals that developed malignant fibrosarcomas (C3H/HeJ mice): 6 animals
Plating efficiency (%) in V79 cells ([1]; 0.12 µg/ml, 3 h, Table I): 67%
Plating efficiency (%) in V79 cells ([1]; 0.25 µg/ml, 3 h, Table I): 58%
Plating efficiency (%) in V79 cells ([1]; 0.5 µg/ml, 3 h, Table I): 50%
Plating efficiency (%) in V79 cells ([1]; 1.0 µg/ml, 3 h, Table I): 43%
Initiator of tumours on mouse skin (mouse skin; ref I. Chouroulinkov, personal communication): acts as an initiator of tumours on mouse skin
Microsome-mediated mutagenic activity in S. typhimurium TA100 [2]: high
Induction of malignant transformation in M2 mouse fibroblasts (result in words) (M2 mouse fibroblasts [3]): induced mutations in V79 cells and malignant transformation in M2 mouse fibroblasts
Malignant transformation in M2 cells compared with the parent hydrocarbon (M2 mouse fibroblasts [3]): more active than the parent hydrocarbon
Plating efficiency (%) in M2 cells (M2 mouse fibroblasts [4]; 0.12 µg/ml, 24 h, Table I): 31%
Plating efficiency (%) in M2 cells (M2 mouse fibroblasts [4]; 0.25 µg/ml, 24 h, Table I): 26%
Plating efficiency (%) in M2 cells (M2 mouse fibroblasts [4]; 0.5 µg/ml, 24 h, Table I): 25%
Plating efficiency (%) in M2 cells (M2 mouse fibroblasts [4]; 1.0 µg/ml, 24 h, Table I): 15%

Structure (SMILES): OC1c2cc3ccc4ccccc4c3cc2C2OC2C1O (single isomer, unassigned) [anti-isomer, benz[a]anthracene 8,9-diol 10,11-oxide]
Plating efficiency (%) in V79 cells ([1]; 0.6 µg/ml, 3 h, Table II): 57%
Plating efficiency (%) in V79 cells ([1]; 1.2 µg/ml, 3 h, Table II): 48%
Plating efficiency (%) in V79 cells ([1]; 2.5 µg/ml, 3 h, Table II): 41%
Plating efficiency (%) in V79 cells ([1]; 5.0 µg/ml, 3 h, Table II): 35%
Induction of mutations in V79 cells, anti versus syn isomer [5]: more active than the syn
Plating efficiency (%) in M2 cells (M2 mouse fibroblasts [4]; 1.2 µg/ml, 24 h, Table II): 26%
Plating efficiency (%) in M2 cells (M2 mouse fibroblasts [4]; 2.5 µg/ml, 24 h, Table II): 12%
Plating efficiency (%) in M2 cells (M2 mouse fibroblasts [4]; 5.0 µg/ml, 24 h, Table II): 6%

Structure (SMILES): Cc1c2c(c(C)c3ccccc13)[C@@H](O)[C@H](O)c1ccccc1-2 (relative stereo) [trans-5,6-Dihydro-5,6-dihydroxy-DMBA, trans-5,6-dihydro-5,6-dihydroxy-DMBA]
Plating efficiency (%) in V79 cells ([1]; 1.0 µg/ml, 3 h, Table I): 80%
Plating efficiency (%) in V79 cells ([1]; 5.0 µg/ml, 3 h, Table I): 73%
Plating efficiency (%) in V79 cells ([1]; 10.0 µg/ml, 3 h, Table I): 57%
Induction of malignant transformation in M2 mouse fibroblasts (result in words) (M2 mouse fibroblasts [3]): inactive in both test systems
Transformed foci/103 survivors (M2 mouse fibroblasts [3]): 0
Transformed foci/dishes treated (M2 mouse fibroblasts [3]): 0/10
Plating efficiency (%) in M2 cells (M2 mouse fibroblasts [4]; 1.0 µg/ml, 24 h, Table I): 28%
Plating efficiency (%) in M2 cells (M2 mouse fibroblasts [4]; 5.0 µg/ml, 24 h, Table I): 28%
Plating efficiency (%) in M2 cells (M2 mouse fibroblasts [4]; 10.0 µg/ml, 24 h, Table I): 20%

Structure (SMILES): O[C@@H]1C=Cc2cc3ccc4ccccc4c3cc2[C@H]1O (relative stereo) [trans-10,11-Dihydro-10,11-dihydroxy-BA, trans-10,11-dihydro-10,11-dihydroxy-BA]
Plating efficiency (%) in M2 cells (M2 mouse fibroblasts [4]; 2.5 µg/ml, 24 h, Table I): 44%
Plating efficiency (%) in M2 cells (M2 mouse fibroblasts [4]; 5.0 µg/ml, 24 h, Table I): 37%
Plating efficiency (%) in M2 cells (M2 mouse fibroblasts [4]; 10.0 µg/ml, 24 h, Table I): 29%

Structure (SMILES): O[C@@H]1C=Cc2c(ccc3cc4ccccc4cc23)[C@H]1O (relative stereo) [trans-3,4-Dihydro-3,4-dihydroxy BA, trans-3,4-dihydro-3,4-dihydroxy-BA]
Plating efficiency (%) in V79 cells ([1]; 2.5 µg/ml, 3 h, Table I): 93%
Plating efficiency (%) in V79 cells ([1]; 5.0 µg/ml, 3 h, Table I): 84%
Plating efficiency (%) in V79 cells ([1]; 10.0 µg/ml, 3 h, Table I): 56%
Initiator of tumours on mouse skin (mouse skin; ref Wood et al., 1977b, Slaga et al., 1978): highly active
Mutagenic activity in V79 cells (V79 cells): active
Inducer of tumours in newborn mice (newborn mice): highly active
Mutagenic activity in Salmonella typhimurium TA100 [2]: active
Plating efficiency (%) in M2 cells (M2 mouse fibroblasts [4]; 2.5 µg/ml, 24 h, Table I): 50%
Plating efficiency (%) in M2 cells (M2 mouse fibroblasts [4]; 5.0 µg/ml, 24 h, Table I): 38%
Plating efficiency (%) in M2 cells (M2 mouse fibroblasts [4]; 10.0 µg/ml, 24 h, Table I): 12%

Structure (SMILES): Cc1c2c(c(C)c3c1ccc1ccccc13)C=C[C@@H](O)[C@@H]2O (relative stereo) [trans-8,9-Dihydro-8,9-dihydroxy-DMBA, trans-8,9-dihydro-8,9-dihydroxy-DMBA]
Plating efficiency (%) in V79 cells ([1]; 0.25 µg/ml, 3 h, Table I): 62%
Plating efficiency (%) in V79 cells ([1]; 0.5 µg/ml, 3 h, Table I): 45%
Plating efficiency (%) in V79 cells ([1]; 1.0 µg/ml, 3 h, Table I): 32%
Microsome-mediated mutagenic activity in S. typhimurium TA100 [2]: some mutagenic activity
Induction of malignant transformation in M2 mouse fibroblasts (result in words) (M2 mouse fibroblasts [3]): induced mutations in V79 cells and malignant transformation in M2 mouse fibroblasts
Malignant transformation in M2 cells compared with the parent hydrocarbon (M2 mouse fibroblasts [3]): more active than the parent hydrocarbon
Plating efficiency (%) in M2 cells (M2 mouse fibroblasts [4]; 0.25 µg/ml, 24 h, Table I): 26%
Plating efficiency (%) in M2 cells (M2 mouse fibroblasts [4]; 0.5 µg/ml, 24 h, Table I): 22%
Plating efficiency (%) in M2 cells (M2 mouse fibroblasts [4]; 1.0 µg/ml, 24 h, Table I): 7%
Activity in M2 cells (malignant transformation), earlier observations (M2 mouse fibroblasts [6]): active

Structure (SMILES): O[C@@H]1C=Cc2cc3c(ccc4ccccc43)cc2[C@H]1O (relative stereo) [trans-8,9-Dihydro-8,9-dihydroxy-BA, trans-8,9-dihydro-8,9-dihydroxy-BA]
Plating efficiency (%) in V79 cells ([1]; 2.5 µg/ml, 3 h, Table I): 57%
Plating efficiency (%) in V79 cells ([1]; 5.0 µg/ml, 3 h, Table I): 54%
Plating efficiency (%) in V79 cells ([1]; 10.0 µg/ml, 3 h, Table I): 53%
Plating efficiency (%) in M2 cells (M2 mouse fibroblasts [4]; 2.5 µg/ml, 24 h, Table I): 44%
Plating efficiency (%) in M2 cells (M2 mouse fibroblasts [4]; 5.0 µg/ml, 24 h, Table I): 39%
Plating efficiency (%) in M2 cells (M2 mouse fibroblasts [4]; 10.0 µg/ml, 24 h, Table I): 30%

Structure (SMILES): Cc1c2c(c(C)c3c1ccc1ccccc13)[C@@H](O)[C@H](O)C=C2 (relative stereo) [trans-10,11-Dihydro-10,11-dihydroxy-DMBA, trans-10,11-dihydro-10,11-dihydroxy-DMBA]
Plating efficiency (%) in V79 cells ([1]; 0.25 µg/ml, 3 h, Table I): 76%
Plating efficiency (%) in V79 cells ([1]; 0.5 µg/ml, 3 h, Table I): 68%
Plating efficiency (%) in V79 cells ([1]; 1.0 µg/ml, 3 h, Table I): 44%
Induction of malignant transformation in M2 mouse fibroblasts (result in words) (M2 mouse fibroblasts [3]): inactive in both test systems
Transformed foci/103 survivors (M2 mouse fibroblasts [3]): 0
Plating efficiency (%) in M2 cells (M2 mouse fibroblasts [4]; 0.25 µg/ml, 24 h, Table I): 30%
Plating efficiency (%) in M2 cells (M2 mouse fibroblasts [4]; 0.5 µg/ml, 24 h, Table I): 26%
Plating efficiency (%) in M2 cells (M2 mouse fibroblasts [4]; 1.0 µg/ml, 24 h, Table I): 11%

Structure (SMILES): O[C@@H]1c2ccccc2-c2cc3ccccc3cc2[C@H]1O (relative stereo) [trans-5,6-Dihydro-5,6-dihydroxy BA, trans-5,6-Dihydro-5,6-dihydroxy-BA]
Plating efficiency (%) in V79 cells ([1]; 2.5 µg/ml, 3 h, Table I): 85%
Plating efficiency (%) in V79 cells ([1]; 5.0 µg/ml, 3 h, Table I): 74%
Plating efficiency (%) in V79 cells ([1]; 10.0 µg/ml, 3 h, Table I): 59%
Plating efficiency (%) in M2 cells (M2 mouse fibroblasts [4]; 2.5 µg/ml, 24 h, Table I): 44%
Plating efficiency (%) in M2 cells (M2 mouse fibroblasts [4]; 5.0 µg/ml, 24 h, Table I): 42%
Plating efficiency (%) in M2 cells (M2 mouse fibroblasts [4]; 10.0 µg/ml, 24 h, Table I): 40%

Structure (SMILES): O[C@@H]1C=Cc2ccc3cc4ccccc4cc3c2[C@H]1O (relative stereo) [trans-1,2-Dihydro-1,2-dihydroxy BA, trans-1,2-Dihydro-1,2-dihydroxy-BA]
Plating efficiency (%) in V79 cells ([1]; 1.2 µg/ml, 3 h, Table I): 99%
Plating efficiency (%) in V79 cells ([1]; 2.5 µg/ml, 3 h, Table I): 95%
Plating efficiency (%) in V79 cells ([1]; 5.0 µg/ml, 3 h, Table I): 89%
Plating efficiency (%) in V79 cells ([1]; 10.0 µg/ml, 3 h, Table I): 55%
Mutagenic activity in V79 cells (V79 cells): not found to be active
Mutagenic activity in Salmonella typhimurium TA100 [2]: not found to be active
Plating efficiency (%) in M2 cells (M2 mouse fibroblasts [4]; 1.2 µg/ml, 24 h, Table I): 44%
Plating efficiency (%) in M2 cells (M2 mouse fibroblasts [4]; 2.5 µg/ml, 24 h, Table I): 40%
Plating efficiency (%) in M2 cells (M2 mouse fibroblasts [4]; 5.0 µg/ml, 24 h, Table I): 37%
Plating efficiency (%) in M2 cells (M2 mouse fibroblasts [4]; 10.0 µg/ml, 24 h, Table I): 10%

Structure (SMILES): Cc1c2ccccc2c(C)c2c1ccc1ccccc12 [DMBA, 7,12-dimethylbenz[a]anthracene]
Plating efficiency (%) in V79 cells [1]: 63% and 39%
Induction of malignant transformation in M2 mouse fibroblasts (result in words) (M2 mouse fibroblasts [3]): some activity
Plating efficiency (%) in M2 cells (M2 mouse fibroblasts [4]): 26% and 24%
Induction of mutations to 8-azaguanine resistance in V79 cells (result in words) [7]: inactive

Induction of malignant transformation in M2 mouse fibroblasts (result in words) (M2 mouse fibroblasts [3]): inactive
Structure (SMILES): OC1c2cc3ccc4ccccc4c3cc2C2OC2C1O (single isomer, unassigned) [syn-isomer, benz[a]anthracene 8,9-diol 10,11-oxide]
Plating efficiency (%) in V79 cells ([1]; 0.6 µg/ml, 3 h, Table II): 56%
Plating efficiency (%) in V79 cells ([1]; 1.2 µg/ml, 3 h, Table II): 50%
Plating efficiency (%) in V79 cells ([1]; 2.5 µg/ml, 3 h, Table II): 49%
Plating efficiency (%) in V79 cells ([1]; 5.0 µg/ml, 3 h, Table II): 48%
Plating efficiency (%) in M2 cells (M2 mouse fibroblasts [4]; 1.2 µg/ml, 24 h, Table II): 47%
Plating efficiency (%) in M2 cells (M2 mouse fibroblasts [4]; 2.5 µg/ml, 24 h, Table II): 49%
Plating efficiency (%) in M2 cells (M2 mouse fibroblasts [4]; 5.0 µg/ml, 24 h, Table II): 30%
Induction of mutations to 8-azaguanine resistance in V79 cells (result in words) [7]: mutagenic

Structure (SMILES): c1ccc2cc3c(ccc4ccccc43)cc2c1 [BA, benz[a]anthracene]
Plating efficiency (%) in V79 cells [1]: 82% and 70%
Plating efficiency (%) in M2 cells (M2 mouse fibroblasts [4]): 32% and 29%
Induction of mutations to 8-azaguanine resistance in V79 cells (result in words) [7]: inactive
